Read-outs that look alike come from different tables or passages of the source.
Columns and labels:
JR-FL-R5 virus = experiment: Example 6: U87.CD4.CCR5 cells infected with replication-deficient luciferase HIV strain; assay type: cell-based; settings: Human immunodeficiency virus 1, U87/CD4/CCR5, 48 h, read-out: % HIV inhibitory activity
Procedure: Methods. U87.CD4.CCR5 cells (2.5×10^4/well) were seeded overnight and then infected with a replication-deficient HIV strain containing a luciferase insertion in the nef gene (JR-FL-R5 virus). JR-FL-R5 virus was pre-incubated with each compound for 1 hour prior to infection. After two days, the cells were washed, lysed and measured for luciferase activity, which is indicative of viral integration and/or transcription. Compounds were tested in quadruplicates.

[1] = system: HIV-BaL virus (R5 tropism); experiment: Protocol 4: inhibition of HIV-1 in U87.CD4.CCR5 cells, p24gag ELISA; assay type: cell-based; settings: Human immunodeficiency virus 1, 96 h, day 4 post-infection, read-out: percent inhibitory activity; for inhibition at 20 µM: 20 μM compound
Procedure: U87.CD4.CCR5 cell lines (5×10^4/well) were seeded in 24 well plates overnight. HIV-BaL virus (R5 tropism) was pretreated with a control solution of DMSO or a given compound dissolved in DMSO to a final concentration of 20-200 μM for 1 hr at 37° C.
Pretreated HIV-1 virus was then added (100 μl of 0.1 MOI) to pre-plated U87.CD4.CCR5 cells in 200 μl DMEM media and then incubated at 37° C. for an additional 1 hour with occasional mixing.
After 1 hour, the cells in each well were washed with 1 ml Ca^2+ Mg^2+ free PBS three times. After the last wash, 1 ml of DMEM was added to each well. On day 4 post-infection, 0.2 ml aliquots of culture supernatant was collected. Aliquots were stored at −80° C. until ready for p24gag ELISA. ELISA for p24gag was done using ELISA plates from Zeptometrix using a standard protocol.

[2] = system: HIV-1IIIB virus (X4 tropism); experiment: Protocol 1: inhibition of HIV-1 in Jurkat T-cells, p24gag ELISA; assay type: cell-based; settings: Human immunodeficiency virus 1, 20 μM compound, HIV-1IIIB (X4), read-out: percent inhibitory activity
[3] = system: HIV-BaL virus (R5 tropism); experiment: Protocol 3: inhibition of HIV-1 in TZM-bl reporter cells, luciferase, R5 virus; assay type: cell-based; settings: Human immunodeficiency virus 1, BAL, read-out: percent inhibitory activity against R5; for inhibition at 200 µM: 200 μM compound
Procedure: (§1) HIV-BaL virus (R5 tropism) and HIV-1 IIIb virus (X4 tropism) were pretreated with a given compound dissolved in DMSO to a final concentration of 100-200 μM for 1 hr at 37° C. in 96 well tissue culture plates. The TZM-bl HIV reporter cell line (1×10^4/well) in 100 ul DMEM is then added to each well and the 96 well tissue culture plates are incubated at 37° C. in 5% CO2 incubator.
(§2) TZM-bl cells were obtained from the NIH AIDS Reagent Program (Germantown Md., USA). TZM-bl, previously designated JC53-bl (clone 13) is a HeLa cell line. The parental cell line (JC.53) stably expresses large amounts of CD4 and CCR5. The TZM-bl cell line was generated from JC.53 cells by introducing separate integrated copies of the luciferase and ß-galactosidase genes under control of the HIV-1 promoter. The TZM-bl cell line is highly sensitive to infection with diverse isolates of HIV-1. The TZM-bl indicator cell line enables simple and quantitative analysis of HIV using either ß-gal or luciferase as a reporter. It is maximally sensitive to HIV infection by including DEAE-dextran in the infection medium. […] Further information about TZM-bl cells can be found in U.S. Pat. No. 6,797,462, issued to Tranzyme Pharma.
(§3) After 48 hours, half of the medium was removed and replaced with commercially available reagents that contain lysing buffer and substrate for luciferase. After 2 minutes of lysis and incubation, the luciferase activity of the TZM-bl cell is read using a commercial luminometer. The readout is translated as relative light units (RLU).

[4] = system: HIV-1 IIIb virus (X4 tropism); experiment: Protocol 3: inhibition of HIV-1 in TZM-bl reporter cells, luciferase, X4 virus; assay type: cell-based; settings: Human immunodeficiency virus 1, IIIB, read-out: percent inhibitory activity against X4; for inhibition at 200 µM: 200 μM compound
Procedure: as §1, §2, §3

[5] = system: HIV-1IIIB virus (X4 tropism); experiment: Protocol 1: inhibition of HIV-1 in Jurkat T-cells, p24gag ELISA; assay type: cell-based; settings: read-out: percent inhibitory activity
Procedure: HIV-1IIIB virus (X4 tropism) was pretreated with a control solution of DMSO or a given compound dissolved in DMSO to a final concentration of 100 μM for 1 hr at 37° C. Pretreated HIV-1 virus was then added (100 μl of 0.1 MOI) to 0.5×10^6 Jurkat (JKT C) T-cells in 100 μl RPMI media and incubated at 37° C. for an additional 1 hr with occasional mixing.
After 1 hour, the cells were centrifuged at 1000 rpm for 5 minutes and the cell pellet washed wash thrice with 2 ml Ca^2+ Mg^2+ free PBS. After the last wash, the cells were resuspended in medium and transferred to 12-well tissue culture plates and placed at 37° C.
On days 2 and 5 of culture, 0.5 ml aliquots of culture supernatant is collected and replaced with 0.5 ml of fresh medium. Aliquots are stored at −80° C. until ready for p24gag ELISA. ELISA for p24gag was done using ELISA plates from Zeptometrix using a standard protocol.

HIV BaL = experiment: Example 5: HIV inhibition in human PBMC infected first, then treated with compound; assay type: cell-based, HIV-1; settings: read-out: % HIV inhibitory activity
Procedure: In this Example, Compounds #32 and #38 were tested using human peripheral blood mononuclear cells (PBMC). The protocol used is the same as that of Example 2—Protocol 2, delineated in detail, above.
Methods. Briefly, 5×10^5 activated PBMCs were used per well in a 12-well tissue culture plate. The PBMCs were infected with HIV BaL for 1 hour and washed 2× with RPMI medium. The PBMCs were then mixed with compound #32 or #38 at concentrations of 6.0 μM, 25 μM or 100 μM, with solutions containing 20U/m1 of IL-2.
At day 3-post infection, 500 μl of fresh medium containing appropriate concentration of compounds were added. The supernatants were harvested at day 8. The level of HIV infection was determined as described in protocol 2.

[6] = system: HIV-1 BaL virus (R5 tropism); experiment: Protocol 2: inhibition of HIV-1 in PBMC, virus pre-treated with compound, p24gag ELISA; assay type: cell-based; settings: Human immunodeficiency virus 1, 144 h, 100 μM compound, HIV-1 BaL (R5), day 6, read-out: percent inhibitory activity
Procedure: The protocol involves PBMCs which were purified by centrifugation at 500 g using Ficoll-Paque™ reagent. The cells were re-suspended in RPMI (10% FBS, 2 ug/ml PHA, 20 U/ml of IL-2) and incubated at 37° C. in 5% CO2 for 3 days.
HIV-1 BaL virus (R5 tropism) was pre-treated with a control solution of DMSO or a given compound dissolved in DMSO to a final concentration of 20-100 μM for 1 hour at 37° C. Pretreated HIV-1 viruses were then added (100 μl of 0.1 MOI) to 5×10^5 PBMCs in 100 μl RPMI media and then incubated at 37° C. for an additional 1 hour with occasional mixing. After 1 hour, the cells were centrifuged at 1000 rpm for 5 minutes and the cell pellet washed wash thrice with 2 ml Ca^2+ Mg^2+ free PBS.
After the last wash, the cells are re-suspended in medium and transferred to 12-well tissue culture plates and place at 37° C.
On day 6 of culture, 0.5 ml aliquots of culture supernatant were collected. Aliquots were stored at −80° C. until ready for p24gag ELISA. ELISA for p24gag was done using ELISA plates from Zeptometrix using a standard protocol.

[7] = Human immunodeficiency virus 1, 100 μM compound, HIV-1IIIB (X4), Jurkat T-cells
[8] = 100 μM compound, TZM-bl cells, 48 hours
[9] = Human immunodeficiency virus 1, Jurkat
[10] = Human immunodeficiency virus 1, BAL, PBMC, 192 h

## O=C(Cn1c(-c2ccccn2)nc2ccccc21)N/N=C/C=C/c1ccccc1 [#51]
JR-FL-R5 virus
  inhibition at 0.05 µM: 22%

## CCOC(=O)c1ccc(NC(=O)CSc2nc(N)cc(=O)[nH]2)nc1 [#29]
[1]
  inhibition at 20 µM: 24%
[2]
  inhibition at 20 µM: 75%

## Nc1cc(=O)[nH]c(SCCC(=O)Nc2ccc(C(=O)O)cc2)n1 [#34]
[3]; TZM-bl cells, 48 hours
  inhibition at 200 µM: 61%
[4]; TZM-bl cells, 48 hours
  inhibition at 200 µM: 62%
[1]
  inhibition at 20 µM: 33%

## COC(=O)c1ccc(NC(=O)CCSc2nc(N)cc(=O)[nH]2)cc1 [#35]
[1]
  inhibition at 20 µM: 27%

## O=C(CSc1nnc(O)nc1O)N/N=C/c1ccccn1 [#37]
[5]; [7]
  inhibition at 100 µM: 45%
[1]; 200 μM compound
  inhibition at 200 µM: 28%

## O=C(CSc1nnc(O)nc1O)N/N=C/c1ccc(-c2nccs2)cn1 [#47]
[3]; [8]
  inhibition at 100 µM: 27%
[4]; [8]
  inhibition at 100 µM: 29%

## O=C(Cc1nnc(O)nc1O)N/N=C/C=C/c1ccccc1 [#48]
JR-FL-R5 virus
  inhibition at 0.05 µM: 28%

## O=C(CSc1nnc(O)nc1O)N/N=C/c1ccc(O)c([N+](=O)[O-])c1 [#41]
[3]; [8]
  inhibition at 100 µM: 14%
[4]; [8]
  inhibition at 100 µM: 10%

## O=C(CSc1nnc(O)nc1O)N/N=C/C=C/c1ccccc1 [#38]
[5]; [9]
  inhibition at 100 µM: 44%
[3]; TZM-bl, 48 h
  inhibition at 100 µM: 73%
[4]; TZM-bl, 48 h
  inhibition at 100 µM: 69%
HIV BaL; [10]
  inhibition at 6 µM: 70%
  inhibition at 25 µM: 90%
  inhibition at 100 µM: 100%
JR-FL-R5 virus
  inhibition at 2 µM: 30%

## Nc1cc(=O)[nH]c(SCC(=O)Nc2ccc3c(c2)OCO3)n1 [#21]
[6]
  inhibition at 100 µM: 40%

## O=C(CSc1nnc(O)nc1O)N/N=C/c1ccc(C(=O)O)cc1 [#3]
[5]; [7]
  inhibition at 100 µM: 71%
[6]
  inhibition at 100 µM: 34%

## O=C(CSc1nnc(O)nc1O)N/N=C/c1ccc(C(=O)O)cn1 [#42]
[3]; [8]
  inhibition at 100 µM: 25%
[4]; [8]
  inhibition at 100 µM: 25%

## CCOC(=O)c1cnc(SCC(=O)Nc2cccc(C(=O)O)c2)nc1N [#1]
[5]; [7]
  inhibition at 100 µM: 3%

## Nc1cc(=O)[nH]c(SCC(=O)Nc2ccc(C(=O)O)cn2)n1 [#28]
[1]
  inhibition at 20 µM: 27%

## Nc1cc(=O)[nH]c(SCCC(=O)NCc2ccc(C(=O)O)cc2)n1 [#36]
[1]
  inhibition at 20 µM: 7%
[2]
  inhibition at 20 µM: 50%

## Nc1cc(=O)[nH]c(SCC(=O)Nc2ccc([N+](=O)[O-])cc2)n1 [#27]
[5]; [9]
  inhibition at 100 µM: 20%

## O=C(CC1CCS(=O)(=O)C1)N/N=C/C=C/c1ccccc1 (centres unmarked) [#49]
JR-FL-R5 virus
  inhibition at 0.05 µM: 45%

## O=C(CSc1nnc(O)nc1O)N/N=C/c1cccnc1 [#40]
[3]; [8]
  inhibition at 100 µM: 71%
[4]; [8]
  inhibition at 100 µM: 57%

## CCOC(=O)Cc1ccc(NC(=O)CSc2nc(N)cc(=O)[nH]2)cc1 [#33]
[1]
  inhibition at 20 µM: 27%

## Nc1cc(=O)[nH]c(SCC(=O)Nc2cnc(C(=O)O)cn2)n1 [#30]
[1]
  inhibition at 20 µM: 19%

## CCOC(=O)c1ccc(/C=N/NC(=O)CSc2nnc(O)nc2O)nc1 [#43]
[3]; [8]
  inhibition at 100 µM: 12%
[4]; [8]
  inhibition at 100 µM: 16%

## Nc1cc(=O)[nH]c(SCC(=O)Nc2ccc(CC(=O)O)cc2)n1 [#32]
[3]; TZM-bl cells, 48 hours
  inhibition at 200 µM: 94%
[4]; TZM-bl cells, 48 hours
  inhibition at 200 µM: 61%
HIV BaL; Human immunodeficiency virus 1, 192 h, 6.0 μM compound, human PBMC, HIV BaL, day 8
  inhibition at 6 µM: 54%
HIV BaL; Human immunodeficiency virus 1, 192 h, 25 μM compound, human PBMC, HIV BaL, day 8
  inhibition at 25 µM: 65%
HIV BaL; Human immunodeficiency virus 1, 192 h, 100 μM compound, human PBMC, HIV BaL, day 8
  inhibition at 100 µM: 82%
JR-FL-R5 virus
  inhibition at 2 µM: 32%
[2]
  inhibition at 20 µM: 80%

## Nc1cc(=O)[nH]c(SCC(=O)Nc2ccc(F)c(Cl)c2)n1 [#25]
[5]; [9]
  inhibition at 100 µM: 18%

## O=C(CSc1nnc(O)nc1O)N/N=C/c1ccc(Br)cc1 [#39]
[5]; [7]
  inhibition at 100 µM: 32%
[3]; [8]
  inhibition at 100 µM: 15%
[4]; [8]
  inhibition at 100 µM: 15%

## COC(=O)c1cnc(NC(=O)CSc2nc(N)cc(=O)[nH]2)cn1 [#31]
[1]
  inhibition at 20 µM: 21%

## O=C(CSc1nnc(O)nc1O)N/N=C/c1ccc(-c2nn[nH]n2)cn1 [#44]
[1]
  inhibition at 20 µM: 10%

## Nc1cc(=O)[nH]c(SCC(=O)Nc2ccc(C(=O)O)cc2)n1 [#2]
[5]; [7]
  inhibition at 100 µM: 88%
[6]
  inhibition at 100 µM: 30%

— patent US20180179166A1, “SMALL MOLECULE INHIBITORS OF GP120-MEDIATED HIV INFECTION AND METHODS OF USE” (ViroCarb Inc., priority 2014, published 2018)
